Where a name gives a salt, the structure may show the parent alone.
Key:
Cathepsin D = Cathepsin D (Homo sapiens, UniProt P07339); test: Off-target activity against human aspartyl protease Cathepsin D; format: biochemical; details: read-out: IC50 CathD
[1] = system: P. falciparum NF54 expressing PMVHA-glmS; test: Dose-response growth assay of parasites expressing PMVHA-glmS or PMVHA-M9 with or without GlcN; format: cell-based, Plasmodium falciparum
Description: Parasites expressing PMVHA-glmS were next assessed for toxicity to 916.
In the case of dose-response curves, medium was kept for the entire experiment; in the case of curves in Figure 4B,C, medium was replaced with inhibitor-free medium at 48 h postinfection. Parasitaemia was always determined at 72 h by flow cytometry. To knock down PMV, GlcN (Sigma) was added to trophozoites and drug curves initiated by adding compound at subsequent rings (24 h) for 24–72 h.

Cathepsin D, sequence (P07339 65-412): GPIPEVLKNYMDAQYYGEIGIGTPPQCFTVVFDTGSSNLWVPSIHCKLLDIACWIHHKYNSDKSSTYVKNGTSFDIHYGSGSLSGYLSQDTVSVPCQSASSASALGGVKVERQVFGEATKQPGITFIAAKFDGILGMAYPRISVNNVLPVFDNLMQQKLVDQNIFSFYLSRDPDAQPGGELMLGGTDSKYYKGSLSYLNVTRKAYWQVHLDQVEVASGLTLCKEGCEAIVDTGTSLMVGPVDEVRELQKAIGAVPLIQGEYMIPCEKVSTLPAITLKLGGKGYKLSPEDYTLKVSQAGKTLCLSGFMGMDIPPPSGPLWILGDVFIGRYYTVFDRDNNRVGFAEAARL

CC(C)C[C@H](NC(=O)[C@@H](NC(=O)[C@H](CCCNC(=N)N)NS(=O)(=O)Cc1ccccc1)C(C)C)[C@@H](O)CC(=O)NCCc1ccccc1 [compound 916, PhCH2SO2-Arg(NH2)-Val-Sta-NH(CH2)2Ph .TFA]
IC50 (Cathepsin D): 25 µM
Decrease in EC50 in presence of GlcN, PMVHA-M9 control ([1]; PMVHA-M9 (inactive glmS), with versus without GlcN): 1.4 fold
Decrease in EC50 following PMV knockdown ([1]; PMVHA-glmS, 6 mM GlcN versus no GlcN, 72 h): 3.3 fold
